Assay results from patent publication US20050214870A1, “Assay” (priority 2001, published 2005).

Columns and labels:
human HERG K+ channel [1] = target: T1, human HERG K+ channel (Homo sapiens, UniProt Q12809)
Method: (§1) Adherent HEK293 cells expressing human HERG, were grown in MEM Earles medium (Life Technologies) supplemented with 10% foetal calf serum (PAA Laboratories), 2 mM L-glutamine (Sigma), 1 mM sodium pyruvate (Sigma), 0.4 mg/ml G418 (Life Technologies) and an addition of 1× non-essential amino acids (Life Technologies). The cells were grown at 37° C. in a humidified atmosphere with 5% CO2 in T225 cm^3 flasks.
(§2) All cells were pelleted, washed twice with PBS and snap-frozen on dry ice prior to storage at −80° C. until required.
(§3) Cell membrane fractions were prepared from frozen aliquots of cells. All procedures were carried out at 4° C. unless otherwise stated. Frozen aliquots of cells were thawed at room temperature and resuspended in homogenisation buffer (50 mM Tris base, 10 mM KCl, 1-1.2 mM MgCl2, pH 7.4). The cells were then disrupted by homogenisation in an Omni LabTek homogeniser at 20,000 rpm for 30 seconds. The homogenate was centrifuged for 20 minutes at 48,000×g (4° C., Sorvall RC5B centrifuge) and the supernatant removed. […] Protein content was determined using a Coomassie Blue based protein assay kit. […]
In each experiment, triplicate assays were routinely performed and the data were averaged. Specific binding was analysed by nonliiear regression fit using GraphPad Prism software (GraphPad, San Diego). […]

human HERG K+ channel [2] = target: T1, human HERG K+ channel; remark: listed apart in the source
Method: as §1, §2, §3
The scintillation proximity assay (SPA) was carried out under identical buffer conditions to those used in the filtration assay. […] Beads were allowed to settle for a minimum of 30 minutes before plates were counted for retained radioactivity on a TopCount NTX scintillation counter.

[3] = cited from earlier work

T1 sequence (Q12809 whole entry): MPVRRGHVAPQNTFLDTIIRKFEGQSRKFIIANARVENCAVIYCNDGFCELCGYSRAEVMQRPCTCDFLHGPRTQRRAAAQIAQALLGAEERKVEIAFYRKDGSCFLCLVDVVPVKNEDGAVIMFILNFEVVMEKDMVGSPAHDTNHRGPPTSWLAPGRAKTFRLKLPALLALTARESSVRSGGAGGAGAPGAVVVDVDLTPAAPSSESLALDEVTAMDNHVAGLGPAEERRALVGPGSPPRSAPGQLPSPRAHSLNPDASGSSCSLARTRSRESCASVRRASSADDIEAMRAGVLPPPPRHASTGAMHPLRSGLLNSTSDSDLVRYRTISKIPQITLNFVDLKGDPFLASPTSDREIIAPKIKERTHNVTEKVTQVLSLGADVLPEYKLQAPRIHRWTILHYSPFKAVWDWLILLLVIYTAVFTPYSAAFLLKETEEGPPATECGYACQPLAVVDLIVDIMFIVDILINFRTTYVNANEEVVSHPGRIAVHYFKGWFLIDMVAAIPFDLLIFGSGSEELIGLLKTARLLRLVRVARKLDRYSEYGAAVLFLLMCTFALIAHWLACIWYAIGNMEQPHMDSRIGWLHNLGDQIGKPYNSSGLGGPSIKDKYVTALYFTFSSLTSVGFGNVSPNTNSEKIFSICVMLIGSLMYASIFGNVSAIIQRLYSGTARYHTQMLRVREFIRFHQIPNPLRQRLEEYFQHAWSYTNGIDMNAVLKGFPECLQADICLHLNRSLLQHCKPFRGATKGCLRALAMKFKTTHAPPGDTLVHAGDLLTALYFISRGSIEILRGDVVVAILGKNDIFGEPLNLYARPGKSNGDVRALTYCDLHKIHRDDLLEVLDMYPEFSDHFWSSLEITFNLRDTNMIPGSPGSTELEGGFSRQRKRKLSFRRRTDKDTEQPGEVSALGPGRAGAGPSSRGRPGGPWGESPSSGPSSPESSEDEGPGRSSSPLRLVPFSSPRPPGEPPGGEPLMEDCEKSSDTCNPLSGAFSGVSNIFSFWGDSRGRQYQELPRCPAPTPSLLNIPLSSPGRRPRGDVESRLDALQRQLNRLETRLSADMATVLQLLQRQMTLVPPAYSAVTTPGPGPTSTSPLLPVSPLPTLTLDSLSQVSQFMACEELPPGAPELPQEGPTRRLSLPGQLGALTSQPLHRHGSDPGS

SMILES	Filter binding pKi (human HERG K+ channel [1])	SPA 96 pKi (human HERG K+ channel [2])	SPA 384 pKi (human HERG K+ channel [2])	effect on QT interval of the electrocardiogram in man [3]
CC(C)NC[C@@H](O)c1ccc(NS(C)(=O)=O)cc1 [D-Sotalol]	<5	<5	<5	
COc1cc(N)c(Cl)cc1C(=O)NC1CCN(CCCOc2ccc(F)cc2)CC1OC (stereo not shown) [Cisapride]				prolong the QT interval
